Columns and labels:
Experiment in all cases: relative viability (nuclei count vs DMSO), 5 days (fraction); higher = more cells survive
CX-5461 + Navitoclax = compound: Cc1cnc(CNC(=O)c2c(=O)c3ccc(N4CCCN(C)CC4)nc3n3c2sc2ccccc23)cn1 [CX-5461] + CC1(C)CCC(c2ccc(Cl)cc2)=C(CN2CCN(c3ccc(C(=O)NS(=O)(=O)c4ccc(N[C@H](CCN5CCOCC5)CSc5ccccc5)c(S(=O)(=O)C(F)(F)F)c4)cc3)CC2)C1 [Navitoclax] (partner 0.5 µM)
Method in brief: (§1)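 Relative viability equals treated-well nuclei counts divided by vehicle-well nuclei counts. Counts came from 4× images of lung cancer cell lines grown in 1536-well plates for 5 days after pin-tool dosing on the day after seeding. Dosing used one drug alone or a fixed anchor-drug dose plus five library-drug doses (not always all listed) in √10 steps, and values are medians of duplicate plates.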

CX-5461 + Lapatinib = compound: Cc1cnc(CNC(=O)c2c(=O)c3ccc(N4CCCN(C)CC4)nc3n3c2sc2ccccc23)cn1 [CX-5461] + CS(=O)(=O)CCNCc1ccc(-c2ccc3ncnc(Nc4ccc(OCc5cccc(F)c5)c(Cl)c4)c3c2)o1 [Lapatinib] (partner 2 µM)
Method in brief: as §1

IMD-0354 + Luminespib = compound: O=C(Nc1cc(C(F)(F)F)cc(C(F)(F)F)c1)c1cc(Cl)ccc1O [IMD-0354] + CCNC(=O)c1noc(-c2cc(C(C)C)c(O)cc2O)c1-c1ccc(CN2CCOCC2)cc1 [Luminespib] (partner 0.01 µM)
Method in brief: as §1

IMD-0354 + Dasatinib = compound: O=C(Nc1cc(C(F)(F)F)cc(C(F)(F)F)c1)c1cc(Cl)ccc1O [IMD-0354] + Cc1nc(Nc2ncc(C(=O)Nc3c(C)cccc3Cl)s2)cc(N2CCN(CCO)CC2)n1 [Dasatinib] (partner 0.075 µM)
Method in brief: as §1

Cell Line | relative viability (CX-5461 + Navitoclax; first compound 0.01 µM) | relative viability (CX-5461 + Navitoclax; first compound 0.03162 µM) | relative viability (CX-5461 + Navitoclax; first compound 0.3162 µM) | relative viability (CX-5461 + Navitoclax; first compound 1 µM) | relative viability (CX-5461 + Lapatinib; first compound 0.01 µM) | relative viability (CX-5461 + Lapatinib; first compound 0.03162 µM) | relative viability (CX-5461 + Lapatinib; first compound 0.1 µM) | relative viability (CX-5461 + Lapatinib; first compound 0.3162 µM) | relative viability (CX-5461 + Lapatinib; first compound 1 µM) | relative viability (IMD-0354 + Luminespib; first compound 0.04 µM) | relative viability (IMD-0354 + Luminespib; first compound 0.1265 µM) | relative viability (IMD-0354 + Luminespib; first compound 0.4 µM) | relative viability (IMD-0354 + Luminespib; first compound 1.265 µM) | relative viability (IMD-0354 + Luminespib; first compound 4 µM) | relative viability (IMD-0354 + Dasatinib; first compound 0.04 µM) | relative viability (IMD-0354 + Dasatinib; first compound 0.1265 µM) | relative viability (IMD-0354 + Dasatinib; first compound 0.4 µM) | relative viability (IMD-0354 + Dasatinib; first compound 1.265 µM) | relative viability (IMD-0354 + Dasatinib; first compound 4 µM) | relative viability (CX-5461 + Navitoclax; first compound 0.1 µM)
CAL-12T | 1.18 | 1.25 | 1.05 | 0.573 | 0.697 | 0.673 | 0.486 | 0.247 | 0.617 | 0.432 | 0.434 | 0.338 | 0.126 | 0.172 | 0.356 | 0.387 | 0.255 | 0.0944 | 0.146 | –
EKVX | 1.13 | 1.03 | – | 0.764 | 0.228 | 0.206 | 0.196 | – | 0.198 | 1.05 | 0.672 | 0.783 | 0.767 | 0.117 | 0.32 | 0.505 | 0.445 | 0.409 | 0.272 | 0.958
NCI-H1651 | – | 0.882 | 0.694 | 0.0867 | – | 0.482 | – | 0.714 | 0.117 | 0.984 | 0.557 | 0.289 | 0.247 | 0.153 | 0.515 | 0.363 | 0.26 | 0.0542 | 0.0748 | –
NCI-H2170 | 0.627 | 0.585 | 0.532 | 0.665 | 0.305 | 0.261 | 0.283 | 0.207 | 0.296 | 0.754 | 0.746 | 0.491 | 0.764 | 0.231 | 0.577 | 0.737 | 0.408 | 0.335 | 0.186 | 0.698
A-427 | 1.05 | 1.06 | – | 0.979 | 1.06 | 0.999 | 1.04 | – | 0.908 | 1.06 | 0.985 | 0.457 | 0.301 | 0.166 | 0.813 | 0.772 | 0.346 | 0.112 | 0.137 | 0.961
NCI-H2347 | 0.968 | 0.864 | 0.601 | 0.73 | 0.941 | 0.931 | 0.963 | 0.524 | 0.778 | 0.523 | 0.331 | 0.356 | 0.395 | 0.267 | 0.321 | 0.308 | 0.278 | 0.162 | 0.229 | 0.858
NCI-H1355 | 0.882 | 1.03 | 1.01 | 1 | 1.03 | 0.976 | 1.15 | 0.293 | 0.785 | 0.769 | 0.585 | 0.567 | 0.333 | 0.32 | 0.761 | 0.718 | 0.574 | 0.198 | 0.294 | 0.986
SK-MES-1 | 1.19 | 1.28 | 1.38 | 1.14 | 0.431 | 0.474 | 0.454 | 0.512 | 0.403 | 0.904 | 1.01 | 0.437 | 0.169 | 0.233 | 0.437 | 0.307 | 0.396 | 0.126 | 0.184 | 1.28

— the supplement of paper PMC10307832
